# Patent US20090196878A1, “Intestinal epithelial glucose sensor” (priority 2004, published 2009)
# Tests used:
# [1] = reported, Roberts et al. 2000; cited from earlier work
# SGLT1 expression [2] = assay: Dietary trial, SGLT1 mRNA by real-time PCR in wild-type mice; format: in vivo, mouse; conditions: proximal and mid intestinal regions, low carbohydrate diet plus sucralose 2 mM, 2 weeks, qPCR
# Protocol: (§1) Male CD-1 and C57BL/6 mice, six weeks old, from Charles River Laboratories were used. The α-gustducin knock out mouse was described by Wong et al. (1996); the T1R3 knock out mouse was described by Damak et al. 2003).
# (§2) High and low carbohydrate diets were resp. TestDiet® 5810 and TestDiet® 5787-9. For the sucralose test, the low carbohydrate diet was supplemented with sucralose (1,6-dichloro-1,6-dideoxy-beta-D-fructofuranosyl-4-chloro-4-deoxy-alpha-galactopyranoside) at 2 mM.
# (§3) Animals were killed by concussion followed by cervical dislocation. The entire small intestine was removed and flushed with ice-cold 0.9% NaCl, opened longitudinally, rinsed in saline and mucous removed by blotting. The small intestine was then divided into proximal, mid and distal sections and the mucosa removed by scraping. Mucosal scrapings were frozen immediately in liquid nitrogen and stored at −80° C. until use. […]
# (§4) Second, groups of wildtype and T1R3 and α-gustducin KO mice were placed on each of three iso-caloric diets a) low carbohydrate, b) high carbohydrate, and c) low carbohydrate+artificial sweetener (sucralose), for two weeks. After this time the mice were killed and the small intestines were removed, divided into proximal, mid and distal regions, and SGLT1 expression, at protein and mRNA levels, were measured in each.
# SGLT1 expression [3] = assay: Dietary trial, SGLT1 expression in T1R3 knock-out mice; format: in vivo, mouse; conditions: T1R3 KO mice, low-carbohydrate + sucralose diet, 2 weeks
# Protocol: as §1, §2, §3, §4
# SGLT1 expression [4] = assay: Dietary trial, SGLT1 protein by western blot of luminal membrane vesicles in wild-type mice; format: in vivo, mouse; conditions: low carbohydrate + sucralose diet, 2 weeks
# Protocol: as §1, §2, §3, §4
# SGLT1 expression [5] = assay: Dietary trial, SGLT1 expression in α-gustducin knock-out mice; format: in vivo, mouse; conditions: α-gustducin KO mice, low-carbohydrate + sucralose diet, 2 weeks
# Protocol: as §1, §2, §3, §4
smiles,measurement,setting,value
"OC[C@H]1O[C@H](O[C@]2(CCl)O[C@H](CCl)[C@@H](O)[C@@H]2O)[C@H](O)[C@@H](O)[C@H]1Cl [sucralose, 1,6-dichloro-1,6-dideoxy-beta-D-fructofuranosyl-4-chloro-4-deoxy-alpha-galactopyranoside]","hydrolysis, transport and metabolism within the mammalian small intestine",[1],"non-hydrolysed, non-transported and non-metabolised"
same,increase in SGLT1 mRNA,SGLT1 expression [2],30-70%
same,SGLT1 mRNA,SGLT1 expression [3],no increase
same,SGLT1 protein,SGLT1 expression [3],no increase
same,SGLT1 protein expression,SGLT1 expression [4],increased
same,SGLT1 mRNA,SGLT1 expression [5],no increase
same,SGLT1 protein,SGLT1 expression [5],no increase
